Test results: publication PMC9090415, “Discovery of small molecule inhibitors of Plasmodium falciparum apicoplast DNA polymerase” (Journal of Enzyme Inhibition and Medicinal Chemistry, 2022)

Target: P. falciparum apicoplast DNA polymerase (Pf-apPOL) (Plasmodium falciparum, UniProt Q8ILY1)
Assay: Fluorescence-based high-throughput DNA polymerase assay (molecular beacon), primary screen and dose-response
Type: biochemical
Details: for DNA Pol: unit not given, 90 min, 10 µM
How it was run: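 Single-point screening used 10 µM compound with 20 nM polymerase, 20 nM hairpin substrate and 6 µM dNTPs for 90 min at 25 °C. Confirmatory titrations (2.5–80 µM) followed fluorescence at three times, and IC50 was derived from a fit including a cooperativity term n.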

Chain of P. falciparum apicoplast DNA polymerase (Pf-apPOL) (Q8ILY1 entry or part of it): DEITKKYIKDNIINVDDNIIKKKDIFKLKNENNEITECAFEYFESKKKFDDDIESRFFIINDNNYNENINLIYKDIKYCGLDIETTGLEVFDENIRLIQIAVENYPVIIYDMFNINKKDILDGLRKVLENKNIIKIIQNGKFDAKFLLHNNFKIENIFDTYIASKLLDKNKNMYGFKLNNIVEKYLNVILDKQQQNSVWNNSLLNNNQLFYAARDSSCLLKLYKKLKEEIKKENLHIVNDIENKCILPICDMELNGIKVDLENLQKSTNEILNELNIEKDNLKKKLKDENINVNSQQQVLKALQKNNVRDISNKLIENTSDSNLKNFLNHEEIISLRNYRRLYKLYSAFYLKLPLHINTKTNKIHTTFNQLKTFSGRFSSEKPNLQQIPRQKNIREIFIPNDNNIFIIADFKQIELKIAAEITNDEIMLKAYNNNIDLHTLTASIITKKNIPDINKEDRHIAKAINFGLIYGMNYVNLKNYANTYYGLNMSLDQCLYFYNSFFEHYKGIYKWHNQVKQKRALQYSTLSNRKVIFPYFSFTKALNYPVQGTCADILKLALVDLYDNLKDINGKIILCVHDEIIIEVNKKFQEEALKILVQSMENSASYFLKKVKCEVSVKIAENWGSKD

SMILES: Oc1cccc2ccc(/C=C/c3ccc4c(c3)OCO4)nc12 [KU0025984]
- % inhibition Apo pol 10' (DRC-1, concentration 2.5): -0.2183%
- % inhibition Apo pol 10' (DRC-1, concentration 5): 11.208%
- % inhibition Apo pol 10' (DRC-1, concentration 10): 38.8453%
- % inhibition Apo pol 10' (DRC-1, concentration 20): 79.6836%
- % inhibition Apo pol 10' (DRC-1, concentration 40): 89.9069%
- % inhibition Apo pol 10' (DRC-1, concentration 80): 93.1389%
- % inhibition Apol 90' (DRC-1, 90', concentration 2.5): -7.534%
- % inhibition Apol 90' (DRC-1, 90', concentration 5): 4.814%
- % inhibition Apol 90' (DRC-1, 90', concentration 10): 24.6628%
- % inhibition Apol 90' (DRC-1, 90', concentration 20): 70.7764%
- % inhibition Apol 90' (DRC-1, 90', concentration 40): 83.7672%
- % inhibition Apol 90' (DRC-1, 90', concentration 80): 87.8493%
- % inhibition apPOL 180' (DRC-1, 180', concentration 2.5): -11.2426%
- % inhibition apPOL 180' (DRC-1, 180', concentration 5): -1.027%
- % inhibition apPOL 180' (DRC-1, 180', concentration 10): 13.0398%
- % inhibition apPOL 180' (DRC-1, 180', concentration 20): 59.792%
- % inhibition apPOL 180' (DRC-1, 180', concentration 40): 76.8882%
- % inhibition apPOL 180' (DRC-1, 180', concentration 80): 82.4453%
- % inhibition Apo pol 5' (DRC-2, 5', concentration 2.5 (unit not given)): 14%
- % inhibition Apol 40' (DRC-2, 40', concentration 2.5 (unit not given)): 14%
- % inhibition ApPOL 90' (DRC-2, 90', concentration 20 (unit not given)): 70%
- % inhibition apPOL 180' (DRC-2, 180', concentration 5 (unit not given)): 12%
- % inhibition apPOL 180' (DRC-2, 180', concentration 40 (unit not given)): 70%
- % inhibition Apo pol 5' (DRC-2, 5', concentration 2.5): 14%
- % inhibition Apo pol 5' (DRC-2, 5', concentration 5): 21%
- % inhibition Apo pol 5' (DRC-2, 5', concentration 10): 38%
- % inhibition Apo pol 5' (DRC-2, 5', concentration 20): 50%
- % inhibition Apo pol 5' (DRC-2, 5', concentration 40): 52%
- % inhibition Apo pol 5' (DRC-2, 5', concentration 80): 53%
- % inhibition Apol 40' (DRC-2, 40', concentration 2.5): 14%
- % inhibition Apol 40' (DRC-2, 40', concentration 5): 25%
- % inhibition Apol 40' (DRC-2, 40', concentration 10): 47%
- % inhibition Apol 40' (DRC-2, 40', concentration 20): 69%
- % inhibition Apol 40' (DRC-2, 40', concentration 40): 71%
- % inhibition Apol 40' (DRC-2, 40', concentration 80): 74%
- % inhibition ApPOL 90' (DRC-2, 90', concentration 2.5): 12%
- % inhibition ApPOL 90' (DRC-2, 90', concentration 2.5 (unit not given)): 12%
- % inhibition ApPOL 90' (DRC-2, 90', concentration 5): 24%
- % inhibition ApPOL 90' (DRC-2, 90', concentration 10): 45%
- % inhibition ApPOL 90' (DRC-2, 90', concentration 20): 70%
- % inhibition ApPOL 90' (DRC-2, 90', concentration 40): 72%
- % inhibition ApPOL 90' (DRC-2, 90', concentration 80): 77%
- % inhibition apPOL 180' (DRC-2, 180', concentration 2.5): -0.452%
- % inhibition apPOL 180' (DRC-2, 180', concentration 5): 12%
- % inhibition apPOL 180' (DRC-2, 180', concentration 10): 35%
- % inhibition apPOL 180' (DRC-2, 180', concentration 20): 66%
- % inhibition apPOL 180' (DRC-2, 180', concentration 40): 70%
- % inhibition apPOL 180' (DRC-2, 180', concentration 80): 78%
- DNA Pol (primary screen value of the 186 hits): 45
- DNA Pol (primary screen value, head "DNA Pol"): 45
